From paper PMC12114812 (Pharmaceutics, 2025)
In brackets after ≈: the same amount, converted by molar mass. Like-named read-outs stand apart in the source and are kept apart here.

Experiments:
[1] = CheqSol potentiometric intrinsic solubility and supersaturation; format: physicochemical; details: for pH range in which the drug precipitated from solution: CheqSol titration from pH 12.0 to low pH, with and without excipients; for time of supersaturation: with hydrophilic excipients; for ts, time of supersaturation: drug:excipient 1:1; for ts, time of supersaturation / solubility: 0.17 M KCl; for Rs, supersaturation ratio: Rs = Cmax/S0, S0 of the API in a medium without excipients; for solubility: aqueous titration solution, without excipient
From the text: For the determination of the intrinsic solubility using the potentiometric method, two events must happen: First, the compound must be fully dissolved at the beginning of the titration. Second, the precipitation of the compound from the solution should occur close to the equivalent point of the titration curve. The amount of compound used in a CheqSol determination must be enough to achieve both events. […] All titrations started at pH 12.0, where the compounds were ionized and titrated to a low pH to force precipitation. […] At this point, the sample existed in a supersaturated or subsaturated state (i.e., chase equilibrium). The change between the subsaturated and supersaturated states was repeated several times to determine the intrinsic solubility by calculating the pH by interpolation between the two saturated states. The intrinsic solubility was calculated using the principles of mass and charge balance at the pH at which the equilibrium of the system was reached.
The CheqSol method not only provides the thermodynamic solubility of the neutral form (S0) of an ionizable compound but also the extent and time that a solution remains supersaturated before reaching S0. Both parameters are used to evaluate the supersaturation of a compound [10]. In this method, the experiment starts in conditions where the drug is completely ionized, and so, fully dissolved. Therefore, the concentration of the neutral species in solution is “zero”. The titration begins by titrating towards the pKa of the drug, to force precipitation as the neutral species starts to form. During this process, the concentration of the neutral species in solution increases to a maximum (Cmax) before the drug precipitates. When precipitation starts, it decreases dramatically to a much lower concentration to reach the intrinsic solubility. It must be noted that, before the drug precipitates, the solution is supersaturated. […] The supersaturation parameters can be obtained from the plot that monitors the concentration of neutral species in solution against time. […] The extent of the supersaturation corresponds to the maximum concentration of the neutral species in solution (Cmax) before the drug precipitates, and the duration of the supersaturation (ts) is the amount of time that the drug stays supersaturated until it reaches equilibrium solubility. In addition, the supersaturation ratio (Rs) can be calculated by dividing Cmax by the intrinsic solubility (S0).

physchem = format: physicochemical; details: I = 0.15 M, 25 °C, standard deviation in parenthesis
Method: The pKa and logPo/w determinations were performed using the SiriusT3 titrator (Pion Inc.). The titrations were carried out from pH 12.0 to 2.0 due to the acidic nature of the drugs, at an ionic strength of 0.15 M (KCl), under an argon atmosphere and controlled temperature (25.0 ± 0.1 °C).
Octanol–water partition values, logPo/w, were obtained by potentiometric titrations in the presence of octanol at concentrations between 1.4 mM and 0.4 mM.

[2] = design: method as in PMID 29481859; details: I = 0.15 M, 25 °C; cited from earlier work
[3] = Ionization degree at the studied pH according to pKa; format: physicochemical
Method: Therefore, this pH value was also included in the study. […] When the solubility of the free drugs (without excipients) is evaluated, it can be observed that the intrinsic solubility is in agreement with their hydrophobicity (Table 1). […] Benzthiazide has an intermediate solubility. Moreover, as expected, the solubility of the compounds increases with the ionization degree. […] Here, a slight increase is observed.

[4] = Shake-flask solubility with and without excipient (maleic/maleate buffers, HPLC quantification); format: physicochemical; details: 25 °C
Method: Prior to performing the solubility measurements, maleic/maleate buffers were prepared as follows: a stock solution containing 55 mM maleic acid, 126 mM sodium chloride, and 82 mM NaOH (conditions that mimic the fed state of the intestinal fluid) was made following the guidelines of Biorelevant. Final buffers at pH 2, 5.8, and 6.5 were prepared by the addition of HCl or NaOH to three different aliquots of the stock solution. […] The weighed amount must be enough to obtain saturated solutions, which depends on the sample and pH of the buffer used. The samples were shaken for 24 h at 25 ± 0.5 °C, with a pH control of the solutions after 4 h of shaking. […] After shaking for 24 h, the samples were allowed to equilibrate for an additional 24 h. Subsequently, the final pH was measured, and phase separation was carried out via centrifugation. […] The quantification of the supernatant was performed by liquid chromatography under isocratic conditions using methanol/10 mM phosphate buffer at pH 7.5 as the mobile phase. […] The flow rate was set at 1 mL/min, with an injection volume of 10 μL. […] If necessary, an appropriate dilution in water of the saturated supernatant was carried out to ensure its fit in the range of calibration. The effect of a given excipient on the solubility of a drug depends on both the nature of the compound and the nature of the excipient used. To evaluate if the enhancement in solubility is significant with respect to the solubility in water when the excipients are added, the criterion of twice the standard deviation (sd) was applied. […] This value was chosen because it corresponds to an average standard deviation obtained in our laboratory for shake-flask solubility determinations and it also agrees with typical sd reported in the literature.

[5] = pKa determination, spectrometric UV-metric titration (SiriusT3); format: physicochemical; details: aqueous 0.15 M KCl solution; I = 0.15 M, 25 °C; standard deviation in parenthesis; read-out: pKa (second value)
Method: The pKa and logPo/w determinations were performed using the SiriusT3 titrator (Pion Inc.). […] For the analysis, 5 μL of a 10 mM DMSO sample stock solution, and 25 μL of a 15 mM potassium phosphate buffer, were added to 1.5 mL of a 0.15 M KCl solution. The UV-metric titration method used the UV absorbance changes in the aromatic groups close to the ionizable groups of the substance as a function of pH [30]. […] Results are the mean value from four triple titrations.

[6] = CheqSol, 25 °C, standard deviation in parenthesis
[7] = standard deviation in parenthesis
[8] = thermodynamic from solid, CheqSol, 25 °C, standard deviation in parenthesis, read-out: log S0 (intrinsic solubility) (converted)
[9] = pH 2, Captisol, 1:1 excipient:API weight ratio
[10] = pH 2, Cavasol, 1:1 excipient:API weight ratio
[11] = pH 2, Klucel, 1:1 excipient:API weight ratio
[12] = pH 2, Kollidon, 1:1 excipient:API weight ratio
[13] = pH 2, S630, 1:1 excipient:API weight ratio
[14] = pH 5.8, Captisol, 1:1 excipient:API weight ratio
[15] = pH 5.8, Cavasol, 1:1 excipient:API weight ratio
[16] = pH 5.8, Klucel, 1:1 excipient:API weight ratio
[17] = pH 5.8, Kollidon, 1:1 excipient:API weight ratio
[18] = pH 5.8, S630, 1:1 excipient:API weight ratio
[19] = pH 6.5, Captisol, 1:1 excipient:API weight ratio
[20] = pH 6.5, Cavasol, 1:1 excipient:API weight ratio
[21] = pH 6.5, Klucel, 1:1 excipient:API weight ratio
[22] = pH 6.5, Kollidon, 1:1 excipient:API weight ratio
[23] = pH 6.5, S630, 1:1 excipient:API weight ratio

SMILES: NS(=O)(=O)c1cc2c(cc1Cl)N=C(CSCc1ccccc1)NS2(=O)=O [Benzthiazide]
- pH range in which the drug precipitated from solution [1]: 6.6–8.7 pH
- time of supersaturation ([1]; CheqSol): ~ 20 min
- ts, time of supersaturation [1, 6]: 6 (1) min
- Rs, supersaturation ratio [1, 7]: 4 (1)
- solubility [1, 8]: 11.2 µM (≈ 4.85 µg/mL)
- Rs, fold higher ([1]; in the presence of klucel and plasdone S630): 40 fold
- Rs, fold higher ([1]; in the presence of kollidon): 100 fold
- logP (physchem; octanol/water): 1.89
- pKa (first value) [2]: 6.64
- pKa (second value) [2]: 9.22
- ionization degree ([3]; pH 6.5, anionic form): around 40%
- SEXC/SAPI [4, 9]: 1.14
- SEXC/SAPI [4, 10]: 0.97
- SEXC/SAPI [4, 11]: 1.20
- SEXC/SAPI [4, 12]: 1.29
- SEXC/SAPI [4, 13]: 1.61
- SEXC/SAPI [4, 14]: 1.09
- SEXC/SAPI [4, 15]: 0.83
- SEXC/SAPI [4, 16]: 1.12
- SEXC/SAPI [4, 17]: 1.21
- SEXC/SAPI [4, 18]: 1.49
- SEXC/SAPI [4, 19]: 1.29
- SEXC/SAPI [4, 20]: 0.98
- SEXC/SAPI [4, 21]: 1.15
- SEXC/SAPI [4, 22]: 1.24
- SEXC/SAPI [4, 23]: 1.28

SMILES: Cc1cc(NC(=O)C2=C(O)c3ccccc3S(=O)(=O)N2C)no1 [Isoxicam]
- pH range in which the drug precipitated from solution [1]: 3.7–6.7 pH
- time the initial metastable form is stabilized ([1]; CheqSol, in the presence of klucel): around 16 min
- time of supersaturation ([1]; CheqSol): ~ 20 min
- ts, time of supersaturation [1, 6]: 11 (3) min
- ts, time of supersaturation ([1]; CheqSol, 25 °C, standard deviation in parenthesis, listed as isoxicam): 11 min
- Rs, supersaturation ratio [1, 7]: 48 (4)
- Rs, supersaturation ratio ([1]; standard deviation in parenthesis, listed as isoxicam): 48
- solubility ([1]; CheqSol, Figure 2A, read-out: Intrinsic solubility): 1.88 µM (≈ 0.63 µg/mL)
- solubility [1, 8]: 1.91 µM (≈ 0.639 µg/mL)
- logP (physchem; octanol/water): 2.99
- ionization degree ([3]; pH 5.8, anionic form): fully ionized
- ionization degree ([3]; pH 5.8, anionic form, listed as isoxicam): ~100%
- ionization degree ([3]; pH 6.5, anionic form): ~100%
- SEXC/SAPI [4, 9]: 1.48
- SEXC/SAPI [4, 10]: 1.45
- SEXC/SAPI [4, 11]: 1.50
- SEXC/SAPI [4, 12]: 1.47
- SEXC/SAPI [4, 13]: 1.81
- SEXC/SAPI [4, 14]: 1.44
- SEXC/SAPI [4, 15]: 1.56
- SEXC/SAPI [4, 16]: 1.93
- SEXC/SAPI [4, 17]: 1.88
- SEXC/SAPI [4, 18]: 1.96
- SEXC/SAPI [4, 19]: 1.52
- SEXC/SAPI [4, 20]: 1.61
- SEXC/SAPI [4, 21]: 1.84
- SEXC/SAPI [4, 22]: 1.93
- SEXC/SAPI [4, 23]: 1.73

SMILES: CN1C(C(=O)Nc2ccccn2)=C(O)c2ccccc2S1(=O)=O [Piroxicam]
- pKa [5]: 5.34
- pH range in which the drug precipitated from solution [1]: 5.7–6.7 pH
- time of supersaturation ([1]; CheqSol): ~ 10 min
- ts, time of supersaturation [1, 6]: 7 (1) min
- solubility [1, 8]: 21.4 µM (≈ 7.08 µg/mL)
- logP (physchem): 1.71
- ionization degree ([3]; pH 2, cationic form, positively charged): around 40%
- ionization degree ([3]; pH 5.8, anionic form): 75%
- ionization degree ([3]; pH 6.5, anionic form): 96%
